Results: PubChem BioAssay AID1963841 (Molecular Pharmacology Branch, DTP, NCI, 2024)

Tested on: 439559-082-T-J2-PDC spheroid viability
Test: Anticancer human tumor 439559-082-T-J2-PDC patient-derived colon adenocarcinoma cell line growth inhibition [POLQ]
Details: spheroids with HUVEC and MSC; for IC50: curve of first compound; for viability, T/C: stronger effect = lower value
Method in brief: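 Complex spheroid viability model combining PDC tumour cells with endothelial (HUVEC) and MSC stromal cells. Novobiocin, ART-558 or RP6685 were tested singly and in combination with standard and investigational anticancer drugs. Each was titrated in half-log steps from near clinical Cmax, or from 10 microM where Cmax was unknown.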

[1] = second compound 0.0316 µM, first compound 0.0316 µM
[2] = second compound 0.0316 µM, first compound 0.1 µM
[3] = second compound 0.0316 µM, first compound 0.316 µM
[4] = second compound 0.0316 µM, first compound 1 µM
[5] = second compound 0.0316 µM, first compound 3.16 µM
[6] = second compound 0.0316 µM, first compound 10 µM
[7] = second compound 0.1 µM, first compound 0.0316 µM
[8] = second compound 0.1 µM, first compound 0.1 µM
[9] = second compound 0.1 µM, first compound 0.316 µM
[10] = second compound 0.1 µM, first compound 1 µM
[11] = second compound 0.1 µM, first compound 3.16 µM
[12] = second compound 0.1 µM, first compound 10 µM
[13] = second compound 0.316 µM, first compound 0.0316 µM
[14] = second compound 0.316 µM, first compound 0.1 µM
[15] = second compound 0.316 µM, first compound 0.316 µM
[16] = second compound 0.316 µM, first compound 1 µM
[17] = second compound 0.316 µM, first compound 3.16 µM
[18] = second compound 0.316 µM, first compound 10 µM
[19] = second compound 1 µM, first compound 0.0316 µM
[20] = second compound 1 µM, first compound 0.1 µM
[21] = second compound 1 µM, first compound 0.316 µM
[22] = second compound 1 µM, first compound 1 µM
[23] = second compound 1 µM, first compound 3.16 µM
[24] = second compound 1 µM, first compound 10 µM
[25] = second compound 3.16 µM, first compound 0.0316 µM
[26] = second compound 3.16 µM, first compound 0.1 µM
[27] = second compound 3.16 µM, first compound 0.316 µM
[28] = second compound 3.16 µM, first compound 1 µM
[29] = second compound 3.16 µM, first compound 3.16 µM
[30] = second compound 3.16 µM, first compound 10 µM
[31] = second compound 10 µM, first compound 0.0316 µM
[32] = second compound 10 µM, first compound 0.1 µM
[33] = second compound 10 µM, first compound 0.316 µM
[34] = second compound 10 µM, first compound 1 µM
[35] = second compound 10 µM, first compound 3.16 µM
[36] = second compound 10 µM, first compound 10 µM
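Also: spheroids exposed to compounds for seven days before readout.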
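For viability, T/C in this document: 100% = DMSO vehicle control viability.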

SMILES: COc1cc2cc(C(=O)CCC(=O)O)sc2cc1OC + Nc1ccc(C#CCN(C(=O)Cc2ncc(C(F)(F)F)cc2C(F)(F)F)c2ccc(F)cc2)nn1
- IC50 (second compound 0.0316 µM): > 10 µM
- IC50 (second compound 0.1 µM): > 10 µM
- IC50 (second compound 0.316 µM): > 10 µM
- IC50 (second compound 1 µM): > 10 µM
- IC50 (second compound 3.16 µM): > 10 µM
- IC50 (second compound 10 µM): > 10 µM
- viability, T/C [1]: 99.2%
- viability, T/C [2]: 99.3%
- viability, T/C [3]: 96.7%
- viability, T/C [4]: 95.8%
- viability, T/C [5]: 105%
- viability, T/C [6]: 97.5%
- viability, T/C [7]: 95%
- viability, T/C [8]: 107%
- viability, T/C [9]: 93.1%
- viability, T/C [10]: 99.2%
- viability, T/C [11]: 93%
- viability, T/C [12]: 98.7%
- viability, T/C [13]: 94.5%
- viability, T/C [14]: 101%
- viability, T/C [15]: 97.4%
- viability, T/C [16]: 93.4%
- viability, T/C [17]: 98.1%
- viability, T/C [18]: 91.8%
- viability, T/C [19]: 96.2%
- viability, T/C [20]: 103%
- viability, T/C [21]: 90.3%
- viability, T/C [22]: 93.6%
- viability, T/C [23]: 99.3%
- viability, T/C [24]: 88.4%
- viability, T/C [25]: 90.5%
- viability, T/C [26]: 88.8%
- viability, T/C [27]: 98.6%
- viability, T/C [28]: 91.3%
- viability, T/C [29]: 97%
- viability, T/C [30]: 102%
- viability, T/C [31]: 107%
- viability, T/C [32]: 101%
- viability, T/C [33]: 98.2%
- viability, T/C [34]: 98.8%
- viability, T/C [35]: 96.4%
- viability, T/C [36]: 82.6%

SMILES: C#Cc1c(F)ccc2cc(O)cc(-c3ncc4c(N5CC6CCC(C5)N6)nc(OCC56CCCN5CC(F)C6)nc4c3F)c12 (stereo unspecified) + Nc1ccc(C#CCN(C(=O)Cc2ncc(C(F)(F)F)cc2C(F)(F)F)c2ccc(F)cc2)nn1
- IC50 (second compound 0.0316 µM): > 10 µM
- IC50 (second compound 0.1 µM): > 10 µM
- IC50 (second compound 0.316 µM): > 10 µM
- IC50 (second compound 1 µM): > 10 µM
- IC50 (second compound 3.16 µM): > 10 µM
- IC50 (second compound 10 µM): > 10 µM
- viability, T/C [1]: 94.9%
- viability, T/C [2]: 84.2%
- viability, T/C [3]: 71.5%
- viability, T/C [4]: 73.7%
- viability, T/C [5]: 71.1%
- viability, T/C [6]: 70.2%
- viability, T/C [7]: 103%
- viability, T/C [8]: 77.3%
- viability, T/C [9]: 68%
- viability, T/C [10]: 82%
- viability, T/C [11]: 74.5%
- viability, T/C [12]: 54.6%
- viability, T/C [13]: 81.3%
- viability, T/C [14]: 87.2%
- viability, T/C [15]: 71.9%
- viability, T/C [16]: 69.9%
- viability, T/C [17]: 70.6%
- viability, T/C [18]: 64.9%
- viability, T/C [19]: 105%
- viability, T/C [20]: 82.7%
- viability, T/C [21]: 62.3%
- viability, T/C [22]: 60.9%
- viability, T/C [23]: 75.2%
- viability, T/C [24]: 65%
- viability, T/C [25]: 79.9%
- viability, T/C [26]: 84%
- viability, T/C [27]: 68.4%
- viability, T/C [28]: 59.1%
- viability, T/C [29]: 60.4%
- viability, T/C [30]: 62.7%
- viability, T/C [31]: 92.7%
- viability, T/C [32]: 76.9%
- viability, T/C [33]: 76.5%
- viability, T/C [34]: 72%
- viability, T/C [35]: 65.2%
- viability, T/C [36]: 66.4%

SMILES: O=C(Nc1ccc(O)c(NS(=O)(=O)c2ccc(F)cc2)c1)c1ccc(-c2ccccc2)cc1 + Nc1ccc(C#CCN(C(=O)Cc2ncc(C(F)(F)F)cc2C(F)(F)F)c2ccc(F)cc2)nn1
- IC50 (second compound 0.0316 µM): > 10 µM
- IC50 (second compound 0.1 µM): > 10 µM
- IC50 (second compound 0.316 µM): > 10 µM
- IC50 (second compound 1 µM): > 10 µM
- IC50 (second compound 3.16 µM): > 10 µM
- IC50 (second compound 10 µM): > 10 µM
- viability, T/C [1]: 93%
- viability, T/C [2]: 97.5%
- viability, T/C [3]: 98.8%
- viability, T/C [4]: 93.3%
- viability, T/C [5]: 96.3%
- viability, T/C [6]: 103%
- viability, T/C [7]: 99%
- viability, T/C [8]: 103%
- viability, T/C [9]: 92.9%
- viability, T/C [10]: 97%
- viability, T/C [11]: 111%
- viability, T/C [12]: 106%
- viability, T/C [13]: 105%
- viability, T/C [14]: 104%
- viability, T/C [15]: 94.8%
- viability, T/C [16]: 96.9%
- viability, T/C [17]: 87.9%
- viability, T/C [18]: 92.5%
- viability, T/C [19]: 93.5%
- viability, T/C [20]: 103%
- viability, T/C [21]: 89.7%
- viability, T/C [22]: 90.7%
- viability, T/C [23]: 99.6%
- viability, T/C [24]: 96.8%
- viability, T/C [25]: 89.6%
- viability, T/C [26]: 107%
- viability, T/C [27]: 100%
- viability, T/C [28]: 99.6%
- viability, T/C [29]: 94.2%
- viability, T/C [30]: 91.3%
- viability, T/C [31]: 114%
- viability, T/C [32]: 101%
- viability, T/C [33]: 102%
- viability, T/C [34]: 91.5%
- viability, T/C [35]: 113%
- viability, T/C [36]: 101%
